± gives the standard deviation of the averaged measurements.
Legend:
Assay in all cases: relative viability vs DMSO control (72 h) (fraction); higher = more viable cells
[1] = tested on: G401
How it was run: (§1)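 Sarcoma cell lines in 384-well plates, seeded to reach 80–90% confluence, were given compound after 24 h and kept 72 h at 37 °C, 5% CO2, with 0.1% DMSO vehicle and a 5 µM positive control. Relative viability came from ATPLite as percent growth, averaged over up to triplicate wells. On the rescaled values, 1 equals full and 0 equals none.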

[2] = tested on: RD-ES
How it was run: as §1

[3] = tested on: HT1080
How it was run: as §1

[4] = tested on: SW982
How it was run: as §1

[5] = tested on: SW1353
How it was run: as §1

[6] = tested on: SW684
How it was run: as §1

[7] = tested on: SK-ES-1
How it was run: as §1

[8] = tested on: KHOS-240S
How it was run: as §1

[9] = tested on: A204
How it was run: as §1

[10] = tested on: SW872
How it was run: as §1

[11] = tested on: SYO-1
How it was run: as §1

[12] = tested on: KHOS-NP
How it was run: as §1

O=c1sn(-c2cccc3ccccc23)c(=O)n1Cc1ccccc1 [Tideglusib]
Settings	relative viability
[1], 0.00017 µM	1.08 ± 0.056
[1], 0.00051 µM	1.12 ± 0.062
[1], 0.00152 µM	1.08 ± 0.035
[1], 0.00457 µM	1.1 ± 0.03
[1], 0.01372 µM	1.08 ± 0.035
[1], 0.04115 µM	1.07 ± 0.011
[1], 0.1235 µM	1.05 ± 0.045
[1], 0.3704 µM	1.04 ± 0.035
[1], 1.111 µM	0.984 ± 0.033
[1], 3.333 µM	0.9812 ± 0.0095
[1], 10 µM	0.918 ± 0.014
[2], 0.00017 µM	1.01 ± 0.029
[2], 0.00051 µM	1.03 ± 0.027
[2], 0.00152 µM	1.02 ± 0.029
[2], 0.00457 µM	1.02 ± 0.019
[2], 0.01372 µM	1.02 ± 0.029
[2], 0.04115 µM	1.01 ± 0.031
[2], 0.1235 µM	1.03 ± 0.025
[2], 0.3704 µM	1.01 ± 0.014
[2], 1.111 µM	1.01 ± 0.015
[2], 3.333 µM	1 ± 0.041
[2], 10 µM	0.992 ± 0.018
[3], 0.00017 µM	1.06 ± 0.037
[3], 0.00051 µM	1.08 ± 0.019
[3], 0.00152 µM	1.07 ± 0.057
[3], 0.00457 µM	1.1 ± 0.02
[3], 0.01372 µM	1.069 ± 0.0096
[3], 0.04115 µM	1.07 ± 0.04
[3], 0.1235 µM	1.06 ± 0.026
[3], 0.3704 µM	1.09 ± 0.035
[3], 1.111 µM	1.07 ± 0.013
[3], 3.333 µM	1.097 ± 0.0039
[3], 10 µM	1.02 ± 0.057
[4], 0.00017 µM	1.07 ± 0.022
[4], 0.00051 µM	1.09 ± 0.022
[4], 0.00152 µM	1.08 ± 0.025
[4], 0.00457 µM	1.11 ± 0.041
[4], 0.01372 µM	1.11 ± 0.023
[4], 0.04115 µM	1.11 ± 0.044
[4], 0.1235 µM	1.1 ± 0.019
[4], 0.3704 µM	1.09 ± 0.01
[4], 1.111 µM	1.068 ± 0.0076
[4], 3.333 µM	1.08 ± 0.035
[4], 10 µM	1.05 ± 0.027
[5], 0.00017 µM	1.07 ± 0.037
[5], 0.00051 µM	1.05 ± 0.024
[5], 0.00152 µM	1.08 ± 0.031
[5], 0.00457 µM	1.04 ± 0.025
[5], 0.01372 µM	1.02 ± 0.033
[5], 0.04115 µM	1.05 ± 0.02
[5], 0.1235 µM	1.03 ± 0.019
[5], 0.3704 µM	0.966 ± 0.052
[5], 1.111 µM	1.01 ± 0.016
[5], 3.333 µM	0.987 ± 0.022
[5], 10 µM	0.827 ± 0.1
[6], 0.00017 µM	1.17 ± 0.021
[6], 0.00051 µM	1.19 ± 0.047
[6], 0.00152 µM	1.21 ± 0.12
[6], 0.00457 µM	1.14 ± 0.09
[6], 0.01372 µM	1.16 ± 0.098
[6], 0.04115 µM	1.14 ± 0.074
[6], 0.1235 µM	1.17 ± 0.023
[6], 0.3704 µM	1.11 ± 0.12
[6], 1.111 µM	1.16 ± 0.032
[6], 3.333 µM	1.09 ± 0.022
[6], 10 µM	1.1 ± 0.067
[7], 0.00017 µM	1.03 ± 0.072
[7], 0.00051 µM	1.06 ± 0.079
[7], 0.00152 µM	1.09 ± 0.059
[7], 0.00457 µM	1.12 ± 0.061
[7], 0.01372 µM	1.083 ± 0.0073
[7], 0.04115 µM	1.08 ± 0.067
[7], 0.1235 µM	1.05 ± 0.016
[7], 0.3704 µM	1.03 ± 0.058
[7], 1.111 µM	1.03 ± 0.065
[7], 3.333 µM	0.977 ± 0.074
[7], 10 µM	0.923 ± 0.012
[8], 0.00017 µM	1.05 ± 0.053
[8], 0.00051 µM	1.07 ± 0.046
[8], 0.00152 µM	1.09 ± 0.07
[8], 0.00457 µM	1.07 ± 0.026
[8], 0.01372 µM	1.08 ± 0.018
[8], 0.04115 µM	1.07 ± 0.043
[8], 0.1235 µM	1.07 ± 0.065
[8], 0.3704 µM	1.06 ± 0.065
[8], 1.111 µM	1.03 ± 0.039
[8], 3.333 µM	1.01 ± 0.022
[8], 10 µM	0.993 ± 0.03
[9], 0.00017 µM	1.09 ± 0.032
[9], 0.00051 µM	1.131 ± 0.0063
[9], 0.00152 µM	1.12 ± 0.018
[9], 0.00457 µM	1.12 ± 0.03
[9], 0.01372 µM	1.14 ± 0.014
[9], 0.04115 µM	1.11 ± 0.015
[9], 0.1235 µM	1.12 ± 0.022
[9], 0.3704 µM	1.12 ± 0.015
[9], 1.111 µM	1.134 ± 0.01
[9], 3.333 µM	1.1 ± 0.033
[9], 10 µM	1.07 ± 0.064
[10], 0.00017 µM	1.1 ± 0.063
[10], 0.00051 µM	1.09 ± 0.027
[10], 0.00152 µM	1.09 ± 0.037
[10], 0.00457 µM	1.09 ± 0.011
[10], 0.01372 µM	1.09 ± 0.03
[10], 0.04115 µM	1.1 ± 0.013
[10], 0.1235 µM	1.08 ± 0.051
[10], 0.3704 µM	1.05 ± 0.022
[10], 1.111 µM	1.07 ± 0.024
[10], 3.333 µM	1.07 ± 0.021
[10], 10 µM	1.03 ± 0.047
[11], 0.00017 µM	1.01 ± 0.036
[11], 0.00051 µM	0.987 ± 0.046
[11], 0.00152 µM	0.999 ± 0.033
[11], 0.00457 µM	0.97 ± 0.068
[11], 0.01372 µM	0.956 ± 0.054
[11], 0.04115 µM	0.944 ± 0.033
[11], 0.1235 µM	0.949 ± 0.051
[11], 0.3704 µM	0.953 ± 0.067
[11], 1.111 µM	0.969 ± 0.071
[11], 3.333 µM	0.944 ± 0.058
[11], 10 µM	0.891 ± 0.067
[12], 0.00017 µM	1.11 ± 0.016
[12], 0.00051 µM	1.112 ± 0.003
[12], 0.00152 µM	1.1 ± 0.019
[12], 0.00457 µM	1.114 ± 0.0055
[12], 0.01372 µM	1.12 ± 0.016
[12], 0.04115 µM	1.113 ± 0.0041
[12], 0.1235 µM	1.108 ± 0.0096
[12], 0.3704 µM	1.1 ± 0.012
[12], 1.111 µM	1.075 ± 0.0059
[12], 3.333 µM	1.08 ± 0.04
[12], 10 µM	1.07 ± 0.029
